What was measured:
[1] = tested on: SW1900 cells (KRAS G12D); assay: 3D Cell viability assay in SW1900 cells (Biological Example 6); type: cell-based; conditions: SW1990 (text: SW1900, KRAS G12D) spheroids, 72 hours
Description: (§1) Biological Example 6: 3D Cell viability assay in AsPC-1, SW1900, HPAC, Capan-2, RKN, H358, HCT116, KP-2, H1573, A549, MKN1, and HT1080 cells
(§2) The inhibition of cellular viability as a result of test compound treatment in a spheroid assay was measured using the CellTiter-Glow 3D Cell Viability Assay (Promega).
(§3) On Day 1, 1000 cells per well were seeded in 150 μL of complete growth media supplemented with 10% fetal bovine serum (FBS) and incubated at 37° C., in the presence of 5% CO2 in 96-well ultra-low attachment microplates (Corning) for 48 hours undisturbed to allow spheroids to form.
(§4) Following spheroid formation, cells were treated with compounds diluted in DMSO at 0.25% final DMSO concentration. Compounds were dosed in a 9-point concentration curve with three-fold dilution between concentrations. Cells were incubated in the presence of compound for 72 hours at 37° C., in the presence of 5% CO2.
(§5) Following this incubation period, the kit-provided CTG reagent was allowed to equilibrate for 30 minutes at room temperature, 150 μL of equilibrated CTG reagent was added to each well, and the plate was sealed before shaking at 250 rpm for 10 minutes at room temperature to lyse the cells, 150 μL of lysate per well was transferred to a 96-well plate and luminescence was read on a CLARIOstar plate reader.
(§6) Data was imported into the Prism software package (Graphpad) and EC50 values were calculated using the log (inhibitor) vs, response—variable slope (Four parameters) model.

[2] = tested on: HCT116 cells (KRAS G13D); assay: 3D Cell viability assay in HCT116 cells (Biological Example 6); type: cell-based; conditions: HCT116 (KRAS G13D) spheroids, 72 hours
Description: as §1, §2, §3, §4, §5, §6

[3] = tested on: Capan-2 cells (KRAS G12V); assay: Cell-based pERK HTRF assay in Capan-2 cells (Biological Example 5)
Description: (§7) Biological Example 5: Cell-based PERK HTRF assay in AsPC-1, SW1900, HPAC, Capan-2, RKN, H358, HCT116, KP-2, H1573, A549, MKN1, and HT1080 cells
(§8) The inhibition of ERK phosphorylation, as measured using the HTRF Advanced Phospho-ERK 1/2 (Thr202/Tyr204) Detection Assay kit (Perkin Elmer), was used to determine the effectiveness of test compounds in disrupting KRAS-driven protein/effector signaling in cells.
(§9) On day 1, cells were seeded into 96-well plates at 2.5×10^4 cells/well in 100 μL of complete growth media supplemented with 10% fetal bovine serum (FBS) and incubated at 37° C., in the presence of 5% CO2.
(§10) On day 2, cells were treated with compounds diluted in DMSO at 0.25% final DMSO concentration. Compounds were dosed in a 9-point concentration curve with three-fold dilution between concentrations. Cells were incubated in the presence of compound for two hours at 37° C. Following this treatment period, cells were harvested by aspirating the media, adding 40 μL of kit-supplied 1x lysis buffer per well, and shaking for 30 minutes at 250 rpm at room temperature.
(§11) Following cell lysis, samples were homogenized by pipetting up and down twenty times and 16 μL of cell lysate per well was transferred from the 96-well cell culture plate to two wells of a 384-well detection plate. A complete detection buffer was prepared by diluting D2 and Eu Cryptate antibodies 1:20 in kit-provided detection solution, 4 μL of complete detection buffer was then added to each well with lysate. Plates were incubated with gentle rocking for 24 hours at 4° C.
(§12) Following this incubation period, plates were centrifuged at 500×g for one minute and analyzed on a CLARIOstar plate reader. Data was imported into Microsoft Excel and the signal from the 665 nm channel was divided by the signal from the 620 nm channel. % pERK was calculated as: […]
(§13) Data was imported to the Prism software package (Graphpad) and EC50 values were calculated using the log (inhibitor) vs, response—variable slopc (Four parameters) model.

[4] = tested on: A549 cells (KRAS G12S); assay: 3D Cell viability assay in A549 cells (Biological Example 6); type: cell-based; conditions: Homo sapiens; A549 (KRAS G12S) spheroids, 72 hours
Description: as §1, §2, §3, §4, §5, §6

[5] = tested on: H1573 cells (KRAS G12A); assay: 3D Cell viability assay in H1573 cells (Biological Example 6); type: cell-based; conditions: Homo sapiens, NCI-H1573; H1573 (KRAS G12A) spheroids, 72 hours
Description: as §1, §2, §3, §4, §5, §6

[6] = tested on: H358 cells (KRAS G12C); assay: 3D Cell viability assay in H358 cells (Biological Example 6); type: cell-based; conditions: H358 (KRAS G12C) spheroids, 72 hours
Description: as §1, §2, §3, §4, §5, §6

[7] = tested on: HT1080 cells (NRAS); assay: 3D Cell viability assay in HT1080 cells (Biological Example 6); type: cell-based; conditions: Homo sapiens, HT-1080; HT1080 (NRAS) spheroids, 72 hours
Description: as §1, §2, §3, §4, §5, §6

[8] = tested on: H1573 cells (KRAS G12A); assay: Cell-based pERK HTRF assay in H1573 cells (Biological Example 5); conditions: Homo sapiens, NCI-H1573
Description: as §7, §8, §9, §10, §11, §12, §13

[9] = tested on: HT1080 cells (NRAS); assay: Cell-based pERK HTRF assay in HT1080 cells (Biological Example 5); conditions: Homo sapiens, HT-1080
Description: as §7, §8, §9, §10, §11, §12, §13

[10] = tested on: SW1900 cells (KRAS G12D); assay: Cell-based pERK HTRF assay in SW1900 cells (Biological Example 5)
Description: as §7, §8, §9, §10, §11, §12, §13

[11] = tested on: A549 cells (KRAS G12S); assay: Cell-based pERK HTRF assay in A549 cells (Biological Example 5); conditions: Homo sapiens
Description: as §7, §8, §9, §10, §11, §12, §13

[12] = tested on: HCT116 cells (KRAS G13D); assay: Cell-based pERK HTRF assay in HCT116 cells (Biological Example 5)
Description: as §7, §8, §9, §10, §11, §12, §13

[13] = tested on: RKN cells (KRAS G12V); assay: 3D Cell viability assay in RKN cells (Biological Example 6); type: cell-based; conditions: RKN (KRAS G12V) spheroids, 72 hours
Description: as §1, §2, §3, §4, §5, §6

[14] = tested on: Capan-2 cells (KRAS G12V); assay: 3D Cell viability assay in Capan-2 cells (Biological Example 6); type: cell-based; conditions: Capan-2 (KRAS G12V) spheroids, 72 hours
Description: as §1, §2, §3, §4, §5, §6

[15] = tested on: MKN1 cells (KRAS amplification); assay: 3D Cell viability assay in MKN1 cells (Biological Example 6); type: cell-based; conditions: MKN (MKN1, KRAS amplification) spheroids, 72 hours
Description: as §1, §2, §3, §4, §5, §6

[16] = tested on: AsPC-1 cells (KRAS G12D); assay: Cell-based pERK HTRF assay in AsPC-1 cells (Biological Example 5)
Description: as §7, §8, §9, §10, §11, §12, §13

[17] = Homo sapiens, Capan-2, Capan-2 (KRAS G12V) cells
[18] = Homo sapiens, SW1990, SW1990 cells (text: SW1900, KRAS G12D)
[19] = SW1990 cells (text: SW1900, KRAS G12D)
[20] = Homo sapiens, ASPC1, AsPC-1 (KRAS G12D) cells

Compound | IC50 ([1]; Homo sapiens) | IC50 ([2]; Homo sapiens, HCT-116) | IC50 [3, 17] | IC50 [4] | IC50 [5] | IC50 ([6]; Homo sapiens, NCI-H358) | IC50 [7] | IC50 [8] | IC50 [9] | IC50 [10, 18] | IC50 [11] | IC50 ([12]; Homo sapiens, HCT-116) | IC50 ([15]; Homo sapiens, MKN-1) | IC50 [13] | IC50 ([14]; Homo sapiens) | other results
N#Cc1c(N)sc2c(F)ccc(-c3c(C(F)(F)F)cc4c(N5CC6CC5CO6)nc(OC[C@@]56CCCN5C[C@H](F)C6)nc4c3F)c12 (some centres unmarked) [Compound 147] | 100 to 1000 nM | 100 to 1000 nM | ≤ 100 nM | ≤ 100 nM | ≤ 100 nM | ≤ 100 nM | > 1000 nM |  |  |  |  |  |  |  |  | 
N#Cc1c(N)sc2c(F)ccc(-c3c(C(F)(F)F)cc4c(N5CCCOCC5)nc(OC[C@@]56CCCN5C[C@H](F)C6)nc4c3F)c12 [Compound 232] | ≤ 100 nM | ≤ 100 nM | ≤ 100 nM | ≤ 100 nM | ≤ 100 nM | ≤ 100 nM | > 1000 nM | ≤ 100 nM | > 1000 nM | ≤ 100 nM | 100 to 1000 nM | ≤ 100 nM |  |  |  | 
Cc1c(C(=O)N(C)C)nn2c1CN(c1nc(OC[C@@]34CCCN3C[C@H](F)C4)nc3c(F)c(-c4ccc(F)c5sc(N)c(C#N)c45)c(C(F)(F)F)cc13)CC2 (atropisomer, axis not shown; (aS)) [Compound 590, 5-((S)-7-(2-amino-3-cyano-7-fluorobenzo[b]thiophen-4-yl)-8-fluoro-2-(((2R,7aS)-2-fluorotetrahydro-1H-pyrrolizin-7a(5H)-yl)methoxy)-6-(trifluoromethyl)quinazolin-4-yl)-N,N,3-trimethyl-4,5,6,7-tetrahydropyrazolo[1,5-a]pyrazine-2-carboxamide] |  | 100 to 1000 nM |  |  |  |  |  |  |  |  |  |  |  | ≤ 100 nM |  | IC50 [1]: ≤ 100 nM; IC50 [10, 19]: ≤ 100 nM; IC50 [14]: ≤ 100 nM; IC50 [15]: ≤ 100 nM; IC50 ([3]; Capan-2 (KRAS G12V) cells): ≤ 100 nM; IC50 ([16]; AsPC-1 (KRAS G12D) cells): ≤ 100 nM; IC50 [6]: ≤ 100 nM
CN(Cc1cccnc1N)c1nc(OC[C@@]23CCCN2C[C@H](F)C3)nc2c(F)c(-c3ccc(F)c4sc(N)c(C#N)c34)c(C(F)(F)F)cc12 [Compound 390] | ≤ 100 nM | 100 to 1000 nM | ≤ 100 nM |  |  | ≤ 100 nM | > 1000 nM |  | > 1000 nM | ≤ 100 nM | ≤ 100 nM |  | ≤ 100 nM |  | ≤ 100 nM | IC50 [16, 20]: ≤ 100 nM
CCN(c1nc(OCC23CCCN2CC(F)C3)nc2c(F)c(-c3ccc(F)c4sc(N)c(C#N)c34)c(C(F)(F)F)cc12)C1CC(C)N(C(=O)C2CC2(F)F)C1 (centres unmarked) [Compound 732] |  |  |  |  |  |  |  |  |  |  |  |  |  | ≤ 100 nM |  | IC50 [1]: ≤ 100 nM; IC50 [10, 19]: ≤ 100 nM; IC50 [14]: ≤ 100 nM; IC50 [15]: ≤ 100 nM; IC50 [2]: 100 to 1000 nM; IC50 ([3]; Capan-2 (KRAS G12V) cells): ≤ 100 nM; IC50 [12]: ≤ 100 nM; IC50 [6]: ≤ 100 nM

Now from value to compound, other results behind:

IC50 ([1]; Homo sapiens) | IC50 ([2]; Homo sapiens, HCT-116) | IC50 [3, 17] | IC50 [4] | IC50 [5] | IC50 ([6]; Homo sapiens, NCI-H358) | IC50 [7] | IC50 [8] | IC50 [9] | IC50 [10, 18] | IC50 [11] | IC50 ([12]; Homo sapiens, HCT-116) | IC50 ([15]; Homo sapiens, MKN-1) | Compound | IC50 [13] | IC50 ([14]; Homo sapiens) | other results
≤ 100 nM | 100 to 1000 nM | ≤ 100 nM | ≤ 100 nM | ≤ 100 nM | ≤ 100 nM | > 1000 nM | ≤ 100 nM | > 1000 nM | ≤ 100 nM | ≤ 100 nM | ≤ 100 nM |  | N#Cc1c(N)sc2c(F)ccc(-c3c(C(F)(F)F)cc4c(N5CCC[C@@H](O)C5)nc(OC[C@@]56CCCN5C[C@H](F)C6)nc4c3F)c12 [Compound 234] |  |  | 
≤ 100 nM | 100 to 1000 nM | ≤ 100 nM |  |  | ≤ 100 nM |  |  |  | ≤ 100 nM |  | ≤ 100 nM | ≤ 100 nM | CCN(c1nc(OC[C@@]23CCCN2C[C@H](F)C3)nc2c(F)c(-c3ccc(F)c4sc(N)c(C#N)c34)c(C(F)(F)F)cc12)[C@H]1C[C@H](C)N(C(=O)[C@@H]2CC2(F)F)C1 (atropisomer, axis not shown) [Compound 751] | ≤ 100 nM | ≤ 100 nM | 
≤ 100 nM | 100 to 1000 nM |  | ≤ 100 nM | ≤ 100 nM | ≤ 100 nM | > 1000 nM | ≤ 100 nM | > 1000 nM | ≤ 100 nM | ≤ 100 nM | ≤ 100 nM |  | C[C@@H]1[C@H](N(C)c2nc(OC[C@@]34CCCN3C[C@H](F)C4)nc3c(F)c(-c4ccc(F)c5sc(N)c(C#N)c45)c(C(F)(F)F)cc23)CCN1C(=O)C1CC1 [Compound 258] |  |  | 
≤ 100 nM | 100 to 1000 nM | ≤ 100 nM |  |  | ≤ 100 nM |  |  |  | ≤ 100 nM |  |  | ≤ 100 nM | CCN(c1nc(OC[C@@]23CCCN2C[C@H](F)C3)nc2c(F)c(-c3ccc(F)c4sc(N)c(C#N)c34)c(C(F)(F)F)cc12)[C@H]1C[C@H](COC)N(C(=O)C2CC2)C1 (atropisomer, axis not shown) [Compound 696] | ≤ 100 nM | ≤ 100 nM | IC50 [16, 20]: ≤ 100 nM
